Laboratory results from PubChem BioAssay AID1918956 (Molecular Pharmacology Branch, DTP, NCI, 2023).
pIC50: −log10 of the molar value.

Test system: OVCAR-5 complex spheroids, viability
Assay: Anticancer human tumor OVCAR-5 cell line growth inhibition;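 note: spheroids exposed to agents for seven days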;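 for viability, T/C: 100% = DMSO vehicle control wells viability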
Conditions: for pIC50: curve of first compound; for viability, T/C: stronger effect = lower value
Method in brief: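 Complex spheroids of tumor cells with HUVEC and human MSCs, exposed to iadademstat combined with other agents. Each agent tested in half-log steps from near clinical Cmax (else 10 microM top), DMSO ≤0.25%.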

CCN(c1cc(-c2ccc(CN3CCOCC3)cc2)cc(C(=O)NCc2c(C)cc(C)[nH]c2=O)c1C)C1CCOCC1 + NC1CCC(NC2CC2c2ccccc2)CC1
pIC50 (second compound 0.1 µM): < 5.52
pIC50 (second compound 0.316 µM): < 5.52
pIC50 (second compound 1 µM): < 5.52
pIC50 (second compound 3.16 µM): < 5.52
pIC50 (second compound 10 µM): < 5.52
viability, T/C (second compound 0.1 µM, first compound 0.00949 µM): 116%
viability, T/C (second compound 0.1 µM, first compound 0.03 µM): 110%
viability, T/C (second compound 0.1 µM, first compound 0.0949 µM): 96.1%
viability, T/C (second compound 0.1 µM, first compound 0.3 µM): 100%
viability, T/C (second compound 0.1 µM, first compound 0.949 µM): 106%
viability, T/C (second compound 0.1 µM, first compound 3 µM): 101%
viability, T/C (second compound 0.316 µM, first compound 0.00949 µM): 109%
viability, T/C (second compound 0.316 µM, first compound 0.03 µM): 114%
viability, T/C (second compound 0.316 µM, first compound 0.0949 µM): 101%
viability, T/C (second compound 0.316 µM, first compound 0.3 µM): 108%
viability, T/C (second compound 0.316 µM, first compound 0.949 µM): 103%
viability, T/C (second compound 0.316 µM, first compound 3 µM): 101%
viability, T/C (second compound 1 µM, first compound 0.00949 µM): 92.4%
viability, T/C (second compound 1 µM, first compound 0.03 µM): 105%
viability, T/C (second compound 1 µM, first compound 0.0949 µM): 90.6%
viability, T/C (second compound 1 µM, first compound 0.3 µM): 97%
viability, T/C (second compound 1 µM, first compound 0.949 µM): 96.5%
viability, T/C (second compound 1 µM, first compound 3 µM): 87.6%
viability, T/C (second compound 3.16 µM, first compound 0.00949 µM): 96%
viability, T/C (second compound 3.16 µM, first compound 0.03 µM): 94.5%
viability, T/C (second compound 3.16 µM, first compound 0.0949 µM): 94%
viability, T/C (second compound 3.16 µM, first compound 0.3 µM): 81.4%
viability, T/C (second compound 3.16 µM, first compound 0.949 µM): 89.9%
viability, T/C (second compound 3.16 µM, first compound 3 µM): 94.4%
viability, T/C (second compound 10 µM, first compound 0.00949 µM): 88.2%
viability, T/C (second compound 10 µM, first compound 0.03 µM): 82.1%
viability, T/C (second compound 10 µM, first compound 0.0949 µM): 93.7%
viability, T/C (second compound 10 µM, first compound 0.3 µM): 79.9%
viability, T/C (second compound 10 µM, first compound 0.949 µM): 72.5%
viability, T/C (second compound 10 µM, first compound 3 µM): 76.4%

COc1cc(Nc2ncc3c(n2)-c2ccc(Cl)cc2C(c2c(F)cccc2OC)=NC3)ccc1C(=O)O + NC1CC1c1ccc(-c2cccc(O)c2)cc1
pIC50 (second compound 0.1 µM): 7.06
pIC50 (second compound 0.316 µM): 7.00
pIC50 (second compound 1 µM): 7.21
pIC50 (second compound 3.16 µM): 7.26
pIC50 (second compound 10 µM): 7.32
viability, T/C (second compound 0.1 µM, first compound 0.00316 µM): 76.9%
viability, T/C (second compound 0.1 µM, first compound 0.01 µM): 73.1%
viability, T/C (second compound 0.1 µM, first compound 0.0316 µM): 60.4%
viability, T/C (second compound 0.1 µM, first compound 0.1 µM): 47.3%
viability, T/C (second compound 0.1 µM, first compound 0.316 µM): 47.1%
viability, T/C (second compound 0.1 µM, first compound 1 µM): 39.8%
viability, T/C (second compound 0.316 µM, first compound 0.00316 µM): 88.9%
viability, T/C (second compound 0.316 µM, first compound 0.01 µM): 84.4%
viability, T/C (second compound 0.316 µM, first compound 0.0316 µM): 63.9%
viability, T/C (second compound 0.316 µM, first compound 0.1 µM): 50.1%
viability, T/C (second compound 0.316 µM, first compound 0.316 µM): 49.6%
viability, T/C (second compound 0.316 µM, first compound 1 µM): 44.6%
viability, T/C (second compound 1 µM, first compound 0.00316 µM): 76.1%
viability, T/C (second compound 1 µM, first compound 0.01 µM): 82.1%
viability, T/C (second compound 1 µM, first compound 0.0316 µM): 57.4%
viability, T/C (second compound 1 µM, first compound 0.1 µM): 46.4%
viability, T/C (second compound 1 µM, first compound 0.316 µM): 47.8%
viability, T/C (second compound 1 µM, first compound 1 µM): 40.1%
viability, T/C (second compound 3.16 µM, first compound 0.00316 µM): 81.3%
viability, T/C (second compound 3.16 µM, first compound 0.01 µM): 72%
viability, T/C (second compound 3.16 µM, first compound 0.0316 µM): 53.6%
viability, T/C (second compound 3.16 µM, first compound 0.1 µM): 46.1%
viability, T/C (second compound 3.16 µM, first compound 0.316 µM): 44.3%
viability, T/C (second compound 3.16 µM, first compound 1 µM): 42.1%
viability, T/C (second compound 10 µM, first compound 0.00316 µM): 87.6%
viability, T/C (second compound 10 µM, first compound 0.01 µM): 72%
viability, T/C (second compound 10 µM, first compound 0.0316 µM): 50.7%
viability, T/C (second compound 10 µM, first compound 0.1 µM): 50.3%
viability, T/C (second compound 10 µM, first compound 0.316 µM): 49.7%
viability, T/C (second compound 10 µM, first compound 1 µM): 43.7%
